# Data: PMC9490236, “Accurate de novo design of membrane-traversing macrocycles” (Cell, 2022)
# Conditions: PAMPA
SMILES,PAMPA_Papp_Avg,PAMPA_R1,PAMPA_R3
"CC(C)[C@@H]1C(=O)N[C@@H](Cc2ccccc2)C(=O)N2CCC[C@H]2C(=O)N(C)[C@H](Cc2ccccc2)C(=O)N[C@H](C)C(=O)N2CCC[C@H]2C(=O)N1C (single isomer, unassigned) [Design D6.8.p2, *DPHE DALA PRO *DVAL PHE PRO]",1.77e-06 cm/s,1.92e-06 cm/s,1.94e-06 cm/s
"CC(C)C[C@H]1C(=O)N2CCC[C@@H]2C(=O)N[C@@H](Cc2ccccc2)C(=O)N2CCC[C@H]2C(=O)N[C@H](C(C)C)C(=O)N[C@H](Cc2ccccc2)C(=O)N1C (single isomer, unassigned) [Design D6.9.p2, DVAL DPHE *LEU DPRO PHE PRO]",6.77e-06 cm/s,6.03e-06 cm/s,8.48e-06 cm/s
"CC(C)C[C@H]1NC(=O)[C@H]2CCCN2C(=O)[C@@H]2CCCN2C(=O)[C@@H](Cc2ccccc2)NC(=O)[C@@H](C(C)C)NC(=O)[C@H](CC(C)C)N(C)C(=O)[C@@H](Cc2ccccc2)NC1=O (single isomer, unassigned) [Design D7.7.p2, PRO DPRO DLEU DPHE *LEU DVAL DPHE]",9.06e-06 cm/s,7.93e-06 cm/s,1.17e-05 cm/s
"CC[C@H](C)[C@@H]1NC(=O)[C@H](Cc2ccccc2)NC(=O)[C@H]2CCCN2C(=O)[C@H]([C@@H](C)CC)NC(=O)[C@H](C(C)C)NC(=O)[C@@H](C)NC(=O)[C@H]2CCCN2C1=O (single isomer, unassigned) [Design D7.8.p2, VAL ILE DPRO PHE ILE DPRO DALA]",4.92e-06 cm/s,4.52e-06 cm/s,5.64e-06 cm/s
"CC(C)C[C@H]1NC(=O)[C@@H]2CCCN2C(=O)[C@H]2CCCN2C(=O)[C@H](C(C)C)NC(=O)[C@@H](CC(C)C)NC(=O)[C@@H]2CCCN2C(=O)[C@H]2CCCN2C(=O)[C@H](C(C)C)NC1=O (single isomer, unassigned) [Design D8.12.p2, DLEU VAL DPRO PRO DLEU VAL DPRO PRO]",2.00E-07,1.77E-07,2.25E-07
"CC(C)C[C@@H]1NC(=O)[C@@H](C(C)C)NC(=O)[C@H](CC(C)C)N(C)C(=O)[C@H]2CCCN2C(=O)[C@@H](C(C)C)NC(=O)[C@H]2CCCN2C(=O)[C@@H](C(C)C)NC(=O)[C@@H](Cc2ccccc2)N(C)C(=O)[C@H](CC(C)C)N(C)C1=O (single isomer, unassigned) [Design D9.8.p1, *LEU DVAL LEU *LEU *DPHE DVAL DPRO DVAL DPRO]",5.72E-06,5.56E-06,6.18E-06
"CC(C)C[C@@H]1NC(=O)[C@@H](C(C)C)NC(=O)[C@H](CC(C)C)N(C)C(=O)[C@H]2CCCN2C(=O)[C@@H](C(C)C)NC(=O)[C@H]2CCCN2C(=O)[C@@H](C(C)C)NC(=O)[C@@H](Cc2ccccc2)N(C)C(=O)[C@H](CC(C)C)N(C)C1=O (single isomer, unassigned) [Design D9.8.p2, *LEU DVAL LEU *LEU *DPHE DVAL DPRO DVAL DPRO]",9.35E-07,1.16E-06,8.61E-07
"CC(C)C[C@@H]1C(=O)N(C)[C@@H](Cc2ccccc2)C(=O)N[C@@H](C(C)C)C(=O)N2CCC[C@H]2C(=O)NCC(=O)N2CCC[C@H]2C(=O)N(C)[C@H](CC(C)C)C(=O)N[C@@H](C(C)C)C(=O)N[C@H](CC(C)C)C(=O)N1C (single isomer, unassigned) [Design D9.43.p1, *DLEU VAL DLEU *DLEU *PHE VAL PRO GLY PRO]",9.46E-07,8.93E-07,5.40E-07
"CC(C)C[C@@H]1C(=O)N(C)[C@@H](Cc2ccccc2)C(=O)N[C@@H](C(C)C)C(=O)N2CCC[C@H]2C(=O)NCC(=O)N2CCC[C@H]2C(=O)N(C)[C@H](CC(C)C)C(=O)N[C@@H](C(C)C)C(=O)N[C@H](CC(C)C)C(=O)N1C (single isomer, unassigned) [Design D9.43.p2, *DLEU VAL DLEU *DLEU *PHE VAL PRO GLY PRO]",3.30E-06,3.34E-06,3.77E-06
"CC[C@@H](C)[C@H]1NC(=O)[C@H](CC(C)C)N(C)C(=O)[C@H]2CCCN2C(=O)[C@H](CC(C)C)NC(=O)[C@H](Cc2ccccc2)N(C)C(=O)CN(C)C(=O)[C@@H](C(C)C)NC(=O)[C@H](C)NC(=O)[C@H]2CCCN2C(=O)[C@@H]2CCCN2C1=O (single isomer, unassigned) [Design D10.58.p2, *GLY *PHE LEU DPRO *LEU DILE PRO DPRO ALA DVAL]",3.23E-07,3.15E-07,2.44E-07
